According to patent US20240174594A1, “4-ALKENYL AND 4-ALKYNYL PHENETHYLAMINE DERIVATIVES AND RELATED COMPOUNDS WITH MODIFIED DOM-LIKE ACTION” (priority 2022, published 2024):

How the values were obtained:
D2 receptors = D2 receptors (Homo sapiens, UniProt P14416); conditions: literature and data on file; cited from earlier work
humans = conditions: cited from earlier work
5-HT transporter (SERT) [1] = molecular target: T1, 5-HT transporter (SERT) (Homo sapiens, UniProt P31645); experiment: interaction with the 5-HT transporter; conditions: data on file
5-HT2A receptor = 5-HT2A receptor (Homo sapiens, UniProt P28223); conditions: cited from earlier work
5-HT1A receptor = molecular target: T2, 5-HT1A receptor (Homo sapiens, UniProt P08908); conditions: literature and data on file; cited from earlier work
T2 sequence (P08908 1-422): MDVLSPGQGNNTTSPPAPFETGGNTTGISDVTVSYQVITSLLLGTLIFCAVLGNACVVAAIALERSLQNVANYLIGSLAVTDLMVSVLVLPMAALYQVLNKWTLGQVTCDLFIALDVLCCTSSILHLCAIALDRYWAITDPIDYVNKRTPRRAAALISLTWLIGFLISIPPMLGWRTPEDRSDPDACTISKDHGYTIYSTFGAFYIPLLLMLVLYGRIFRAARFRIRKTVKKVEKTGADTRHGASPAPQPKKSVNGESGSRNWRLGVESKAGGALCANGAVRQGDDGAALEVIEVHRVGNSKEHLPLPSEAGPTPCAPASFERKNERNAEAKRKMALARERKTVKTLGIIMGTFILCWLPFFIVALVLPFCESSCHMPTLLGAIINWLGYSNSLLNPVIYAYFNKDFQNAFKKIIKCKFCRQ

5-HT transporter (SERT) [2] = molecular target: T1, 5-HT transporter (SERT); conditions: cited from earlier work

Sequence of 5-HT2A receptor (P28223 whole entry): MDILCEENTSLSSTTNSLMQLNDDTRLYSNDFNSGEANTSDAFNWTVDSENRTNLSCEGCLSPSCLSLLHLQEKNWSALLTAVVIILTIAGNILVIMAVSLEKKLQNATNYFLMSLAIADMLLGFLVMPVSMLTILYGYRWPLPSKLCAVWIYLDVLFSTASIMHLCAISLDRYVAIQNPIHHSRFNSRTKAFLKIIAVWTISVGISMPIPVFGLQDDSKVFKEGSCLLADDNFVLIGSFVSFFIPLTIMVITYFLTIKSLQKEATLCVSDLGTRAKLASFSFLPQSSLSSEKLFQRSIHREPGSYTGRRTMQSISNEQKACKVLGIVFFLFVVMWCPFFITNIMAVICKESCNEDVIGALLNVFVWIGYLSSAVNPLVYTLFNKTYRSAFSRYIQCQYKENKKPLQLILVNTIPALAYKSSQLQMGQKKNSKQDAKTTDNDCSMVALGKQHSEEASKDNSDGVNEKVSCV
Sequence of D2 receptors (P14416 whole entry): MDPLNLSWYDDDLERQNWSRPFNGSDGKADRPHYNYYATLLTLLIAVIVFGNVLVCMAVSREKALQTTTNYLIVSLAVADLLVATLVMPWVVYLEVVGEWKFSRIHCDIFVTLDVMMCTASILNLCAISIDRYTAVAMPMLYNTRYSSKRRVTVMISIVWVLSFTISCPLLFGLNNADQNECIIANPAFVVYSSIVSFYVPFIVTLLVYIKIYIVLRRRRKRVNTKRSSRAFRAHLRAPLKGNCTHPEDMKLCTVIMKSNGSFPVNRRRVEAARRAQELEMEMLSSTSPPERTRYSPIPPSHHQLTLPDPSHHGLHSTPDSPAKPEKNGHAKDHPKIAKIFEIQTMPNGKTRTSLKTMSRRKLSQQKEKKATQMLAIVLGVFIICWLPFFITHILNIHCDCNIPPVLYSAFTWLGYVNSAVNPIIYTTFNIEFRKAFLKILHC
T1 sequence (P31645 whole entry, species assumed): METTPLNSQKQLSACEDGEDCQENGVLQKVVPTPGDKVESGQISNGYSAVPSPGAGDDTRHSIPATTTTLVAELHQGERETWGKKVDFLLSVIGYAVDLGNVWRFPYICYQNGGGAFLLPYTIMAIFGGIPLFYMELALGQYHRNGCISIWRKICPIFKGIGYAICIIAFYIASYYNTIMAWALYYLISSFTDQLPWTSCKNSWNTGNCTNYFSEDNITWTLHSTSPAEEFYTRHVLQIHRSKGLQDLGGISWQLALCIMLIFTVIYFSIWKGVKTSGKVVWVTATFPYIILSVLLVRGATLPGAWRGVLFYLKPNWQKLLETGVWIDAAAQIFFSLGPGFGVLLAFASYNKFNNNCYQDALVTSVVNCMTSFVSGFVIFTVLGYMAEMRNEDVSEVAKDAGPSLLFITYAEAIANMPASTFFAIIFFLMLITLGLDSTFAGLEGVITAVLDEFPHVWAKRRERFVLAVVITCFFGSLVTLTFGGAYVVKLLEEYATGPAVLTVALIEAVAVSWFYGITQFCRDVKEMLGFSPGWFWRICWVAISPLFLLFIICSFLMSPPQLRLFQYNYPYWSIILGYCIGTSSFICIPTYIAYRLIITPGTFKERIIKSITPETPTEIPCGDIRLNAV

## COc1cc(CC(C)N)c(OC)cc1C (centres unmarked) [DOM, 2,5-dimethoxy-4-methylamphetamine]
D2 receptors
  D2 receptor affinity: no affinity
humans
  duration of action / psychoactive effects: 14 to 20 h
  psychoactive dose in humans (full active doses / human potency): 3 to 10 mg
  psychoactive dose, off of baseline: 1 mg
  time to first subjective effects: 30 min
  time to full effects (onset of action): up to 2 hours
5-HT transporter (SERT) [1]
  interaction with the SERT: do not interact
5-HT2A receptor
  5-HT2A receptor affinity: high affinities
5-HT1A receptor
  5-HT1A receptor affinity: very low affinity

## CN(C)CCc1c[nH]c2cccc(O)c12 [Psilocin]
5-HT transporter (SERT) [2]
  action at the SERT: inhibits

## C#Cc1cc(OC)c(CCN)cc1OC.Cl [2C-YN, 2,5-Dimethoxy-4-ethynylphenethylamine hydrochloride]
humans
  duration of action / psychoactive effects: 2 to 3 h

## COc1cc(CCN)c(OC)cc1C [2C-D, 2,5-dimethoxy-4-methylphenethylamine]
humans
  duration of action / psychoactive effects: 4 to 6 h
  psychoactive dose in humans (full active doses / human potency): 20 to 60 mg

## COc1cc(CCN)cc(OC)c1OC [mescaline]
D2 receptors
  D2 receptor affinity: no affinity
5-HT2A receptor
  5-HT2A receptor affinity: very weak

## CCN(CC)C(=O)[C@@H]1C=C2c3cccc4[nH]cc(c34)C[C@H]2N(C)C1 [LSD, lysergic acid diethylamide]
humans
  duration of action / psychoactive effects: 8 to 12 h

## COc1cc(C)cc(OC)c1CC(C)N (centres unmarked) [ψ-DOM, 2,6-dimethoxy-4-methylamphetamine]
humans
  duration of action / psychoactive effects: 6 to 8 h
  psychoactive dose in humans (full active doses / human potency): 15 to 25 mg
humans; higher dose than DOM
  dose relative to DOM: 3- to 5 fold
5-HT2A receptor
  5-HT2A binding affinity in comparison to DOM: approximately three-fold lower
